We go through 11 molecules from US5780498A, “Endothelin receptor antagonists” (Ciba-Geigy Japan Limited, priority 1993, dated 1998).

The target in one assay is T1, ETA receptor (Sus scrofa, UniProt Q29010).
T1 construct: The plasma membrane of porcine lung; from tissue; host or cells: porcine lung plasma membrane
T1 sequence (Q29010 21-427): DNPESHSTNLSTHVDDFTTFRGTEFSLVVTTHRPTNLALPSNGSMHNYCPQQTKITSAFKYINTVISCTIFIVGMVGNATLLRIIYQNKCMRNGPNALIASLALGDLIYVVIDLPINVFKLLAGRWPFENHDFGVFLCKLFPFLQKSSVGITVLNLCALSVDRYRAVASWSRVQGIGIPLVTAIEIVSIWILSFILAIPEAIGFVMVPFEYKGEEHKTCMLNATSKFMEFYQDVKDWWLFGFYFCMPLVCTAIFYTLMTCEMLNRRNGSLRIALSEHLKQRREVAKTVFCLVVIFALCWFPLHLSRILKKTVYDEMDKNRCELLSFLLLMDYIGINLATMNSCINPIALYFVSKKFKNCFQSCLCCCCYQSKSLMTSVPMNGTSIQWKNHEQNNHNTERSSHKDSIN
In words: Endothelin (ET) receptor binding assay, ETA ([125I]ET-1 in the presence of 1 nM nonlabeled ET-3, porcine lung plasma membrane). Particulars: for inhibition at 10 µM: 10^-5 M of the test compound, specific ETA binding; for Ki: from inhibition curves for the binding of [125I]ETs. As to the method: (§1) Nonspecific binding is defined as membrane-associated radioactivity in the presence of saturating concentrations of ETs (100 nM). Nonspecific binding is subtracted from the total binding and the difference is defined as specific binding.

For the next assay, the target named is T2, ETB receptor (Sus scrofa, UniProt P35463).
T2 construct: The plasma membrane of porcine lung; from tissue; host or cells: porcine lung plasma membrane
T2 sequence (P35463 27-443): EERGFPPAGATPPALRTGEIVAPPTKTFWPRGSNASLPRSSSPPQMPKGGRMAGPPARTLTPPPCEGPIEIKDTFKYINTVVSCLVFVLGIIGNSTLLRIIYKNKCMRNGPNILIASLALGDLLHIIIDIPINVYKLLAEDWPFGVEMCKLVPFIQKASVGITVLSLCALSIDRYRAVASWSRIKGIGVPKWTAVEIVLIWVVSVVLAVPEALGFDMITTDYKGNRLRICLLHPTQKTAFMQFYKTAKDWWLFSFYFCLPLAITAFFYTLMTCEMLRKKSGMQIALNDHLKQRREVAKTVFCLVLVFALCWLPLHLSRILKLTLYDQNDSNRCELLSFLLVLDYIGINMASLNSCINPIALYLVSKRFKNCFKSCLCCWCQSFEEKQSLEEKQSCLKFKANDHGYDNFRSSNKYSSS
In words: Endothelin (ET) receptor binding assay, ETB ([125I]ET-3 alone, porcine lung plasma membrane). The settings on record: for inhibition at 0.1 µM: 10^-7 M of the test compound, specific ETB binding; for Ki: from inhibition curves for the binding of [125I]ETs. As to the method: as §1

Another assay addresses T3, guinea pig trachea (Cavia porcellus, UniProt H0VTF3).
T3 construct: The trachea which is isolated from male Hartley guinea pigs; from tissue; host or cells: guinea pig (Hartley) tracheal rings, epithelium removed
T3 sequence (H0VTF3 27-415): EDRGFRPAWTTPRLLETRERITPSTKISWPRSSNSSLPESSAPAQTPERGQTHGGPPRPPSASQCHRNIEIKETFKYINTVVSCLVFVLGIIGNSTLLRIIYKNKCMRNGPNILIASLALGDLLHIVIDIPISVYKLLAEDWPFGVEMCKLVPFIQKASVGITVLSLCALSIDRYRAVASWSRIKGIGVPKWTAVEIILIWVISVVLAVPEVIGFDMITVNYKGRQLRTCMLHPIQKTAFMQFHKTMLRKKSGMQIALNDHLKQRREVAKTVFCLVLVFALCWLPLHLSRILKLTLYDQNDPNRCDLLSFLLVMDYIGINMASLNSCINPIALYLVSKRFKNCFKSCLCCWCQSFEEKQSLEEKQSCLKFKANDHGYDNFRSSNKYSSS
Briefly: Contraction of guinea pig trachea (inhibition of ET-3 induced contraction). The settings on record: ET-3 contraction; Krebs-Henseleit solution; 60 mM KCl reference standard; read-out: pA2 (converted). On the procedure: Contraction assays are performed basically according to the published method (M. Takai et al. Biochem. Biophys. Res. Commun. 184, 953-959, 1992). The trachea which is isolated from male Hartley guinea pigs weighing 350-500 g, is cut into rings of approximately 2 mm length after removal of the adherent fat and connective tissues. The epithelium is removed mechanically from the rings. The preparations are placed in organ baths containing a Krebs-Henseleit or Tyrode solution at 37° C., pH 7.4 bubbled with 95% O2 and 5% CO2. Tension is measured isometrically via a force-displacement transducer (Nikhon Kohden, Tokyo, TB-612T) under an initial tension of 1 g. Concentration-response curves for ET-3 are obtained by its cumulative application. Inhibitory activities of given compounds are investigated by the addition of their DMSO solutions into the baths 10 to 40 min before the addition of ET-3. These activities are evaluated numerically by pA2 values which are negative logarithms of compound concentrations inducing a shift of the ET-3 concentration-effective curves toward the 2-fold higher concentration range of ET-3. Contraction produced by 60 mM KCl or 10 μM carbachol is used as a reference standard.

In the case of `Cc1cc(C)cc(C(=O)N(C)[C@H](Cc2ccc(-c3ccccc3)cc2)C(=O)N[C@@H](Cc2c[nH]c3ccccc23)c2nn[nH]n2)c1` [Example 4, 5-[N-(3,5-dimethylbenzoyl)-N-methyl-(D)-(4-phenylphenyl)alanyl-(L)-tryptophanyl]-1H-tetrazole], on ETA receptor, the inhibition (usually the share of the control response that was lost under treatment) at 10 µM was 74%. The molecule also had an inhibition at 0.1 µM at ETB receptor of 93%.
Consider `Cc1cc(C)cc(C(=O)N(C)[C@H](Cc2ccc(-c3ccsc3)cc2)C(=O)N[C@@H](Cc2c[nH]c3ccccc23)C(=O)O)c1` [Example 91, N-(3,5-dimethylbenzoyl)-N-methyl-(D)-3-[4-(3-thienyl)phenyl]alanyl-(L)-tryptophan], for which, at ETA receptor, the inhibition at 10 µM is 100% and the Ki (usually the equilibrium dissociation constant of an inhibitor or competing ligand from its target) stood at 54 nM. At ETB receptor, this molecule came in with an inhibition at 0.1 µM of 100% and a Ki of 0.23 nM.
`Cc1cc(C)cc(C(=O)N(C)[C@H](Cc2ccc(-c3ccccc3)cc2)C(=O)NC(Cc2csc3ccccc23)C(=O)O)c1` (some centres unmarked) [Example 7]: the inhibition at 10 µM on ETA receptor amounted to 77%. This molecule also gave an inhibition at 0.1 µM on ETB receptor of 87%.
On to `Cc1cc(C)cc(C(=O)N(C)[C@H](Cc2ccc(-c3ccno3)cc2)C(=O)N[C@@H](Cc2c[nH]c3ccccc23)C(=O)O)c1` [Example 95, N-(3,5-dimethylbenzoyl)-N-methyl-(D)-3-[4-(5-isoxazolyl)phenyl]alanyl-(L)-tryptophan], for which, at ETA receptor, the inhibition at 10 µM amounted to 98% and the Ki worked out at 45 nM. Also, on ETB receptor, the inhibition at 0.1 µM amounted to 98% and affinity was put at a Ki of 0.21 nM.
Regarding `Cc1cc(C)cc(C(=O)N(C)[C@H](Cc2ccc(-c3ccccc3)cc2)C(=O)N[C@@H](Cc2c[nH]c3ccccc23)C(=O)O)c1` [Example 55, N-(3,5-Dimethylbenzoyl)-N-methyl-(D)-(4-phenylphenyl)alanyl-(L)-tryptophan], at ETA receptor, the inhibition at 10 µM is 94% and the Ki came out at 440 nM. Besides, at ETB receptor, the inhibition at 0.1 µM is 100% and the Ki was determined as 1 nM.
On to `Cc1cc(C)cc(C(=O)N(C)[C@H](Cc2ccc(-c3cccs3)cc2)C(=O)N[C@@H](Cc2c[nH]c3ccccc23)C(=O)O)c1` [Example 93, N-(3,5-dimethylbenzoyl)-N-methyl-(D)-3-[4-(2-thienyl)phenyl]alanyl-(L)-tryptophan], for which the Ki on ETA receptor turned out to be 87 nM; at ETB receptor, 0.6 nM.
For `Cc1cc(C)cc(C(=O)N(C)[C@H](Cc2ccc(-c3ccccc3)cc2)C(=O)CC(Cc2c[nH]c3ccccc23)C(=O)O)c1` (some centres unmarked) [Example 84], the inhibition at 10 µM on ETA receptor was determined as 46%. The inhibition at 0.1 µM on ETB receptor was 70%.
Consider `Cc1cc(C)cc(C(=O)N(C)[C@H](Cc2ccc(-c3ccccc3)cc2)C(=O)N(C)[C@@H](Cc2c[nH]c3ccccc23)C(=O)O)c1` [Example 12, N-(3,5-Dimethylbenzoyl)-N-methyl-(D)-(4-phenylphenyl)alanyl-N-methyl-(L)-tryptophan], for which the inhibition at 10 µM on ETA receptor turned out to be 36%. The molecule further gave an inhibition at 0.1 µM on ETB receptor of 91%.
Take `Cc1cc(C)cc(C(=O)N(C)[C@H](Cc2ccccc2)C(=O)N[C@@H](Cc2c[nH]c3ccccc23)C(=O)O)c1` [Example 1, N-(3,5-Dimethylbenzoyl)-N-methyl-(D)-phenylalanyl-(L)-tryptophan]: the inhibition at 10 µM on ETA receptor is 37%. Moreover, 0.1 µM produced 55% inhibition on ETB receptor. Further, the Kb at guinea pig trachea was 501 nM.
For `COc1ccc(C[C@H](C(=O)N[C@@H](Cc2c[nH]c3ccccc23)C(=O)O)N(C)C(=O)c2cc(C)cc(C)c2)cc1` [Example 65, N-(3,5-dimethylbenzoyl)-N-methyl-O-methyl-(D)-tyrosyl-(L)-tryptophan], the inhibition at 10 µM on ETA receptor turned out to be 47%. At 0.1 µM the inhibition on ETB receptor was 59%.
Consider `Cc1cc(C)cc(C(=O)N(C)C(C(=O)N[C@@H](Cc2c[nH]c3ccccc23)C(=O)O)C(c2ccccc2)c2ccccc2)c1` (some centres unmarked) [Example 57, N-(3,5-dimethylbenzoyl)-N-methyl-(D,L)-3-(diphenyl)alanyl-(L)-tryptophan], for which, at ETA receptor, the inhibition at 10 µM is 34%. The inhibition at 0.1 µM at ETB receptor turned out to be 95%.
